Assay results from publication PMC9889419 (Pharmacological Reports, 2022).
Where “and” joins values, the source holds several entries; their conditions need not be identical. Identical values can stand only once. Counter-ions that a name gives are not always drawn.

How the values were obtained:
mice [1] = experiment: Bicuculline-induced seizures; assay type: in vivo; settings: ip
CYP2C9 = molecular target: T1, CYP2C9 (Homo sapiens, UniProt P11712); experiment: Human cytochrome P450 inhibition (human liver microsomes); assay type: in vitro ADME
T1 construct: from tissue; host or cells: human liver microsomes
Description: (§1) The selective reactions utilized for each enzyme were as follows: CYP1A2—phenacetin deethylation, CYP2A6—coumarin 7-hydroxylation, CYP2B6—7-ethoxy-4-trifluoromethyl coumarin O-deethylation, CYP2C9—diclofenac 4-hydroxylation, CYP2C19—S-mephenytoin 4-hydroxylation, CYP2D6—bufuralol 1’-hydroxylation, CYP2E1—chlorzoxazone 6-hydroxylation, CYP3A4—testosterone 6β-hydroxylation. For inhibitory evaluation, human liver microsomes and the tested compound (added in methanol as a solvent) were incubated under aerobic conditions with cytochrome P450 isozyme-selective substrates and excess NADPH at 37 °C. Incubations were for time periods over which the reaction in the absence of the compound, were determined to be linear, and proportional to the protein concentration. The human liver microsomes used were selected from the bank of those commercially available to be especially rich in the amount of the cytochrome P450 isozyme under investigation. However, it is important to note that the microsomes contained all the other isozymes in addition, and if reaction/substrate was less than specific, the other isozymes may have contributed to a minor extent to the enzyme activity determined. Following incubation, the reaction was terminated, an internal standard added, the metabolic products extracted and separated by reverse phase HPLC. Each assay was performed in duplicate, and the mean value calculated. The HPLC elutions were monitored by UV absorbance for all CYP reactions except those for CYP2A6, CYP2B6 and CYP2D6 where fluorescence monitoring was employed. Quantification was by comparison with authentic metabolites.

CYP2C19 = molecular target: T2, CYP2C19 (Homo sapiens, UniProt P33261); experiment: as above; assay type: in vitro ADME
T2 construct: tissue Puracyp #011; host or cells: human liver microsomes
Description: as §1

CYP1A2 = molecular target: T3, CYP1A2 (Homo sapiens, UniProt P05177); experiment: as above; assay type: in vitro ADME
T3 construct: tissue celsis F008085-CST; host or cells: human liver microsomes
T3 sequence (P05177 1-516): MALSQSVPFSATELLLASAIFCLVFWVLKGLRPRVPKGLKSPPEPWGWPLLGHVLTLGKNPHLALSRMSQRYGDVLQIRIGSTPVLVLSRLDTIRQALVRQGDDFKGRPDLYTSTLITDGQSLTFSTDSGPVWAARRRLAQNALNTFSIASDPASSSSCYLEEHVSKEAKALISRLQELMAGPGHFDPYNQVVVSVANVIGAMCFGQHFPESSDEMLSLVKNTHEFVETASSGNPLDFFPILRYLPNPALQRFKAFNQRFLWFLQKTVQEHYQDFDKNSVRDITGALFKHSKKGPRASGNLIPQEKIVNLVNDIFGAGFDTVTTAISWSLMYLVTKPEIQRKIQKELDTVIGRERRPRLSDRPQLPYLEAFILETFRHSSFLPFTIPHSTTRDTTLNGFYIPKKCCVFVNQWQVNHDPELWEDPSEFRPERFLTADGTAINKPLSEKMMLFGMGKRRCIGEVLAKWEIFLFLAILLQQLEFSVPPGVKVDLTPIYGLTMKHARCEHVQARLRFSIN
Description: as §1

CYP3A4 = molecular target: T4, CYP3A4 (Homo sapiens, UniProt P08684); experiment: as above; assay type: in vitro ADME
T4 construct: The human liver microsomes used were selected from the bank of those commercially available; from tissue; host or cells: human liver microsomes
Description: as §1

CYP2D6 = molecular target: T5, CYP2D6 (Homo sapiens, UniProt P10635); experiment: as above; assay type: in vitro ADME
T5 construct: from tissue; host or cells: human liver microsomes
Description: as §1

CYP2B6 = molecular target: T6, CYP2B6 (Homo sapiens, UniProt P20813); experiment: as above; assay type: in vitro ADME
T6 construct: tissue celsis M008085JTA; host or cells: human liver microsomes
Description: as §1

rats = experiment: Whole body plethysmography; assay type: in vivo; settings: 6, 10 and 20 mg/kg ip, 4-h test period
Description: Whole body plethysmography. The method, which detects the effects of a test substance on airway function, follows that described by Chong et al. and by Hamelmann et al.. Rats were placed individually in a single chamber plethysmograph (Buxco) in which they can move and drink freely. After a habituation period of 150 min, the following parameters were recorded: inspiratory time, expiratory time, peak inspiratory flow, peak expiratory flow, tidal volume, respiratory rate, relaxation time, pause, enhanced pause. All data generated were acquired using specialized EMKA Technologies software (lOX version 1.7.0; ANALYST version 1.49), connected to Buxco plethysmographic equipment. Recordings were taken for 30 min before and for 4 h after administration of the test substance. […] Each time point represented the mean value of a 2-min block (recorded 1 min before and 1 min after each time point). In cases where the data can be considered invalid, for example if recorded during a period of sniffing thereby causing a brief period of increased respiratory frequency, the retained values were those as close as possible to the theoretical time point. Results were expressed as absolute values and as percent changes from initial mean values (T0). […] Each test substance was evaluated at 3 doses (6 mg/kg, 10 mg/kg, and 20 mg/kg), administered ip, and compared with a vehicle control group. […]

mice [2] = experiment: Tail immersion test (local anesthetic activity); assay type: in vivo
Description: The tail immersion test in mice. […] The method was performed by subcutaneous (sc) injection of the tested substance dissolved in saline, at a concentration range 0.06–2%, in a constant volume of 0.2 mL about 1 cm from the root of the mouse tail. Fifteen minutes later, the 3-cm distal part of the tail was immersed into temperature-controlled water (50 ± 0.5 °C). The reaction time (latency until the tail is pulled away) was measured by the means of a chronometer. In this assay the cut-off was 20 s [29].

T5 sequence (P10635 whole entry): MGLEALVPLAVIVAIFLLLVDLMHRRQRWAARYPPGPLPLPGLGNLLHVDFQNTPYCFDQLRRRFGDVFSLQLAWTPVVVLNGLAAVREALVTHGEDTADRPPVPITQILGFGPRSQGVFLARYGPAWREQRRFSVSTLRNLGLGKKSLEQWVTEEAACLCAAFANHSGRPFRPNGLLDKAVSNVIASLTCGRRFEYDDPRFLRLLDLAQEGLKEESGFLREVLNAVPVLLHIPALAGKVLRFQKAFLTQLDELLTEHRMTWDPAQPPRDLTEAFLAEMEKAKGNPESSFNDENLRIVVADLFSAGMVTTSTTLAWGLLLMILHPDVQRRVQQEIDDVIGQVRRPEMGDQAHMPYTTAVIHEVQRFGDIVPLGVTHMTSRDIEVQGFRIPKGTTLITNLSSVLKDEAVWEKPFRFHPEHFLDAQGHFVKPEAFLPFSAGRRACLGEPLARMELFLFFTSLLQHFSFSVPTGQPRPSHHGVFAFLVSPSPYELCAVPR
T2 sequence (P33261 whole entry): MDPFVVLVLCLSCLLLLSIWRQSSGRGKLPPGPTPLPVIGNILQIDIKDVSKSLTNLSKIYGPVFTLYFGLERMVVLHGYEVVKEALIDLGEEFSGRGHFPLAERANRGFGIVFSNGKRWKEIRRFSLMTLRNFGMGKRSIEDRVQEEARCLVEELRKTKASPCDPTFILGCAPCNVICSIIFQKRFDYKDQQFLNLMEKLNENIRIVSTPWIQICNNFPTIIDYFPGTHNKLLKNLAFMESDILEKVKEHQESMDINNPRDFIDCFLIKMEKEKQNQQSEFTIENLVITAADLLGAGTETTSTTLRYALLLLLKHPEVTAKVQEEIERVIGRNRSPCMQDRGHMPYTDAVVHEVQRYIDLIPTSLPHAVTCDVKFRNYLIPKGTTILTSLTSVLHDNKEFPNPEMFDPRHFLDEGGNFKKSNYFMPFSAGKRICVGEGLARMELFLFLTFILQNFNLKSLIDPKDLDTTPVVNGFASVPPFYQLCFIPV
T1 sequence (P11712 whole entry): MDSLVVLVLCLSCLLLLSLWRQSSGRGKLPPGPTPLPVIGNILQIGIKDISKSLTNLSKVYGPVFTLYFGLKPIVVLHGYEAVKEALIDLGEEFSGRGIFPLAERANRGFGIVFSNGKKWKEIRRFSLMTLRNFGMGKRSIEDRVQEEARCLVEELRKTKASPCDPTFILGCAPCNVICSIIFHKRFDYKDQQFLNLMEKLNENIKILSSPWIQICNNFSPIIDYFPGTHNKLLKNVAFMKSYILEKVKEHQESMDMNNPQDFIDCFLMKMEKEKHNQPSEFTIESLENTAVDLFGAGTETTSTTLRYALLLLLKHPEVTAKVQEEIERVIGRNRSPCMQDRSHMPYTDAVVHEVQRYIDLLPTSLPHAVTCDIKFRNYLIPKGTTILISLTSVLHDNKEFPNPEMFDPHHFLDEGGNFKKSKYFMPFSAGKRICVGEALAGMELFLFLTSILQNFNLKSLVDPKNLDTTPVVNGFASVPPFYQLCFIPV
T4 sequence (P08684 whole entry): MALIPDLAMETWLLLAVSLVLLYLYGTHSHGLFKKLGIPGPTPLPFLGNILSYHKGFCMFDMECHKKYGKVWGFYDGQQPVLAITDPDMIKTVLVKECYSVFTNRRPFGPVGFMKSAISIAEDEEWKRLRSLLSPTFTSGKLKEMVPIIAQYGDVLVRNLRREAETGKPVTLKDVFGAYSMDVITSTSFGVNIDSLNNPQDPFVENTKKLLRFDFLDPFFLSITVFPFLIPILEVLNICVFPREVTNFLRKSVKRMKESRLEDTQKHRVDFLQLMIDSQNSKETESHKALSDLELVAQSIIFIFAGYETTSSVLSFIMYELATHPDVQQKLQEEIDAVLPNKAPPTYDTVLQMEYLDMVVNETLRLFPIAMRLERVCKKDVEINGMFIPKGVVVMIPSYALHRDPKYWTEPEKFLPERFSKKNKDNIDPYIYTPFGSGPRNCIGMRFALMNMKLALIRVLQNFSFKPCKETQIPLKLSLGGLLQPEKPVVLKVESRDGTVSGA
T6 sequence (P20813 whole entry): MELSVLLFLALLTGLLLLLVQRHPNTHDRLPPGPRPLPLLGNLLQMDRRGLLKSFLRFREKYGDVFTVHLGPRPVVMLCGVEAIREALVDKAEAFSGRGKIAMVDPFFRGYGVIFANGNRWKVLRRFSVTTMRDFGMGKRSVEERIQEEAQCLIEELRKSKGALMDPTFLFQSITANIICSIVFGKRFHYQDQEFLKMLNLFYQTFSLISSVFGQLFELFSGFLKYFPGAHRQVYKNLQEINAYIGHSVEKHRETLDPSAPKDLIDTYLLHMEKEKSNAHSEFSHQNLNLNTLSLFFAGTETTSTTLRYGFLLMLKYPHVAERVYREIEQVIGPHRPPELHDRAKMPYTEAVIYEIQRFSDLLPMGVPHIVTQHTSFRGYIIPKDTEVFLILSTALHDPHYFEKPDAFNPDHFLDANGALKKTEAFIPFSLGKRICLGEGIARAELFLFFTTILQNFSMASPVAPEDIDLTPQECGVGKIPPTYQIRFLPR

Compound: CCC(CO)NCCOc1c(C)cccc1Cl (centres unmarked) [Compound 4, R,S-2-((2-(2-chloro-6-methylphenoxy)ethyl)amino)butan-1-ol]
- Bicuculline-induced seizures ED50 (mice [1]): > 70 mg/kg
- Inhibition type (CYP2C9): Slight inhibition
- % inhibition of 500 µM concentration (CYP2C9; 500 µM, substrate at 400 µM): 19 (substrate at 400 µM) %
- Inhibition type (CYP2C19): Mixed/competitive
- Ki (CYP2C19): 54 µM
- % inhibition of 500 µM concentration (CYP2C19; 500 µM, substrate at […]): 80 (substrate at 150.0 µM) %
- Inhibition type (CYP1A2): Mixed/competitive
- Ki (CYP1A2): 23 µM
- % inhibition of 500 µM concentration (CYP1A2; 500 µM, substrate at 2 µM): 65 (substrate at 2 µM) %
- Inhibition type (CYP3A4): Weak inhibition
- % inhibition of 500 µM concentration (CYP3A4; 500 µM, substrate at 200.0 µM): 52 (substrate at 200.0 µM) %
- Inhibition type (CYP2D6): Mixed/competitive
- Ki (CYP2D6): 1.4 µM
- % inhibition of 500 µM concentration (CYP2D6; 500 µM, substrate at 100.0 µM): 100 (substrate at 100.0 µM) %
- Inhibition type (CYP2B6): Weak inhibition
- % inhibition of 500 µM concentration (CYP2B6; 500 µM, substrate at 25 µM): 69 (substrate at 25 µM) %

Compound: CCC(CO)NCCOc1c(C)cccc1Cl (centres unmarked) [KM-408, R,S-2-((2-(2-chloro-6-methylphenoxy)ethyl)amino)butan-1-ol hydrochloride]
- effects on respiratory parameters (rats): No significant effects
- Reaction time to painful stimulus (mice [2]; 0.062%): 4.4 ± 1.0 s
- Prolongation of the time reaction (mice [2]; 0.125%): 42.9%
- Reaction time to painful stimulus (mice [2]; 0.125%): 5.0 ± 1.0 s
- Prolongation of the time reaction (mice [2]; 0.5%): 166% and 165.7%
- Reaction time to painful stimulus (mice [2]; 0.5%): 9.3 ± 0.9 s
- Prolongation of the time reaction (mice [2]; 2.0%): 323% and 322.9%
- Reaction time to painful stimulus (mice [2]; 2.0%): 14.8 ± 1.9 s
- Reaction time to painful stimulus (mice [2]; […]): 7.4 ± 1.0 s
- tail immersion test: active at (mice [2]; mice): 0.5%
